Results published in PubChem BioAssay (NCI).
Values joined by “and” are separate entries in the source; they are usually repeats but may differ in a detail not shown here. Equal entries are not always repeated.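 Assay format: 96-well plates, 48-hour exposure. GI50 = concentration required for 50% inhibition of growth. The concentration for full growth arrest is given as TGI.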

What was measured:
Assay in all cases: NCI tumour cell line growth inhibition, 48 h
[1] = test system: U251 CNS
[2] = test system: OVCAR-3 ovarian
[3] = test system: NCI-H522 lung
[4] = test system: PC-3 prostate
[5] = test system: HCT-15 colon
[6] = test system: 786-0 renal
[7] = test system: MALME-3M melanoma
[8] = test system: HOP-92 NSCLC
[9] = test system: DMS 114 small cell lung
[10] = test system: K-562 leukemia
[11] = test system: UO-31 renal
[12] = test system: SW-620 colon
[13] = test system: TK-10 renal
[14] = test system: SN12K1 renal
[15] = test system: RXF 393 renal
[16] = test system: P388 leukemia
[17] = test system: MOLT-4 leukemia
[18] = test system: XF 498 CNS
[19] = test system: HCC-2998 colon
[20] = test system: SNB-19 CNS
[21] = test system: NCI-H23 lung
[22] = test system: KM20L2 colon
[23] = test system: OVCAR-4 ovarian
[24] = test system: UACC-257 melanoma
[25] = test system: SNB-78 CNS
[26] = test system: SF-539 CNS
[27] = test system: SK-MEL-28 melanoma
[28] = test system: CCRF-CEM leukemia
[29] = test system: HT29 colon
[30] = test system: COLO 205 colon
[31] = test system: HCT-116 colon
[32] = test system: EKVX NSCLC
[33] = test system: MDA-N
[34] = test system: SK-OV-3 ovarian
[35] = test system: SK-MEL-5 melanoma
[36] = test system: HOP-62 NSCLC
[37] = test system: SF-295 CNS
[38] = test system: SN12C renal
[39] = test system: RPMI-8226 leukemia
[40] = test system: A549 NSCLC
[41] = test system: SF-268 CNS
[42] = test system: BT-549 breast
[43] = test system: A498 renal
[44] = test system: OVCAR-5 ovarian
[45] = test system: LOX IMVI melanoma
[46] = test system: DLD-1 colon
[47] = test system: ACHN renal
[48] = test system: P388/ADR leukemia
[49] = test system: KM12 colon
[50] = test system: UACC-62 melanoma
[51] = test system: MDA-MB-435
[52] = test system: NCI-H460 lung
[53] = test system: OVCAR-8 ovarian
[54] = test system: MCF7 breast
[55] = test system: CAKI-1 renal
[56] = test system: SNB-75 CNS
[57] = test system: T-47D breast
[58] = test system: SR leukemia
[59] = test system: HL-60(TB) leukemia
[60] = test system: HOP-18 NSCLC
[61] = test system: SK-MEL-2 melanoma
[62] = test system: MDA-MB-231 breast
[63] = test system: IGROV1 ovarian
[64] = test system: NCI/ADR-RES ovarian
[65] = test system: HS 578T breast
[66] = test system: DU-145 prostate
[67] = test system: NCI-H226 lung
[68] = test system: DMS 273 small cell lung
[69] = test system: M14 melanoma
[70] = test system: LXFL 529 NSCLC
[71] = test system: M19-MEL melanoma
[72] = test system: RXF-631 renal

## COc1cc(C2c3cc4c(cc3[C@@H](Nc3ccc(C#N)cc3)C3COC(=O)[C@H]23)OCO4)cc(OC)c1O (stereo partly specified)
[1]
  GI50: 0.879 µM
[2]
  GI50: 1.81 µM and 2.14 µM
  TGI: 50 µM and 5.33 µM and 5.32 µM
[3]
  GI50: 1.44 µM and 1.55 µM
  TGI: 7.51 µM and 4.48 µM and 7.4 µM
[4]
  GI50: 2.81 µM
  TGI: 50 µM and > 100 µM
[5]
  TGI: 18 µM
[6]
  GI50: 0.112 µM
  TGI: 1.92 µM and 1.19 µM
[7]
  GI50: 0.217 µM and 1.9 µM
  TGI: 9.66 µM and 2.69 µM and 17.2 µM
[8]
  GI50: 0.685 µM
  TGI: 6.77 µM and 5.99 µM
[9]
  TGI: 4.14 µM
[10]
  GI50: 0.987 µM and 1.85 µM
[11]
  GI50: 0.26 µM and 0.968 µM
  TGI: 7.14 µM and 5.42 µM and 2.64 µM
[12]
  GI50: 0.781 µM and 0.263 µM
  TGI: 50 µM and 75 µM and 11.4 µM
[13]
  GI50: 1.62 µM
  TGI: 17.4 µM and 4.49 µM
[14]
  TGI: 3.94 µM
[15]
  GI50: 2.53 µM
  TGI: 4.96 µM and 9.01 µM
[16]
  TGI: 0.832 µM
[17]
  GI50: 0.0307 µM
[18]
  TGI: 22.8 µM
[19]
  GI50: 1.02 µM
  TGI: 5.11 µM and 2.11 µM
[20]
  GI50: 0.314 µM and 0.768 µM
[21]
  GI50: 0.753 µM and 0.532 µM
  TGI: 2.53 µM and 3.67 µM and 4.36 µM
[22]
  TGI: 75 µM
[23]
  TGI: 19.2 µM
[24]
  TGI: 33.3 µM
[25]
  TGI: 75 µM
[26]
  GI50: 0.431 µM
  TGI: 11.3 µM and 3.64 µM
[27]
  GI50: 2.89 µM
  TGI: 28.2 µM and > 100 µM
[28]
  GI50: 0.147 µM
[29]
  GI50: 1.61 µM
  TGI: 11.6 µM and 14 µM
[30]
  GI50: 1.98 µM and 1.38 µM
  TGI: 13 µM and 8.41 µM and 11.5 µM
[31]
  GI50: 0.452 µM and 0.389 µM
  TGI: 10.8 µM and 2.45 µM and 11.4 µM
[32]
  GI50: 2.21 µM and 3.71 µM
  TGI: 50 µM and 12.8 µM and > 100 µM
[33]
  TGI: 18.7 µM and > 100 µM
[34]
  GI50: 3.29 µM and 1.34 µM
  TGI: 48.8 µM and 11.3 µM and > 100 µM
[35]
  GI50: 0.911 µM and 0.54 µM
  TGI: 4.68 µM and 2.68 µM and 2.06 µM
[36]
  GI50: 0.194 µM and 0.234 µM
  TGI: 2.82 µM and 0.59 µM and 2.57 µM
[37]
  GI50: 0.336 µM
  TGI: 8.74 µM and 3.65 µM
[38]
  GI50: 1.91 µM and 0.728 µM
[39]
  GI50: 0.869 µM and 1.33 µM
  TGI: 1.42 µM and 3.87 µM and 4.73 µM
[40]
  GI50: 0.107 µM
  TGI: 6.1 µM and 2.35 µM and 2.96 µM
[41]
  GI50: 1.4 µM
  TGI: 42.5 µM and > 100 µM
[42]
  GI50: 1.71 µM
  TGI: 33.8 µM and 7.42 µM
[43]
  TGI: 11.4 µM
[44]
  GI50: 2.96 µM and 3.3 µM
  TGI: 31.7 µM and 59.9 µM and > 100 µM
[45]
  TGI: 9.52 µM
[46]
  TGI: 3.51 µM
[47]
  GI50: 0.128 µM
  TGI: 1.24 µM and 2.41 µM
[48]
  TGI: 2.11 µM
[49]
  GI50: 1.13 µM and 1.61 µM
[50]
  GI50: 0.783 µM
  TGI: 9.01 µM and 14.1 µM
[51]
  GI50: 1.98 µM
  TGI: 50 µM and > 100 µM
[52]
  GI50: 0.0174 µM and 0.0261 µM
[53]
  GI50: 1.51 µM
[54]
  GI50: 0.329 µM and 0.188 µM
  TGI: 40.4 µM and 75 µM and > 100 µM
[55]
  GI50: 0.228 µM
  TGI: 4.37 µM and 2.52 µM
[56]
  GI50: 0.787 µM
  TGI: 42.6 µM and 56.3 µM
[57]
  GI50: 0.46 µM
[58]
  GI50: 0.468 µM
  TGI: 50 µM and > 100 µM
[59]
  TGI: 1.12 µM and 0.702 µM
[60]
  TGI: 39.3 µM
[61]
  GI50: 1.77 µM and 8.87 µM
[62]
  GI50: 3.34 µM
  TGI: 25.6 µM and > 100 µM
[63]
  GI50: 1.76 µM
  TGI: 31.1 µM and 8.65 µM
[64]
  GI50: 6.59 µM and 2.68 µM
  TGI: 11.6 µM and 41.3 µM and 21.2 µM
[65]
  GI50: 3.38 µM
  TGI: 29.1 µM and > 100 µM
[66]
  TGI: 1.17 µM and 6.87 µM
[67]
  GI50: 0.239 µM and 0.242 µM
  TGI: 3.46 µM and 1.43 µM and 2.06 µM

## COCCN1C2=CCCCC2=Nc2c1nc(N)[nH]c2=O
[1]
  TGI: > 100 µM
[2]
  TGI: > 100 µM
[3]
  TGI: > 100 µM
[5]
  TGI: > 100 µM
[6]
  TGI: > 100 µM
[7]
  TGI: > 100 µM
[8]
  TGI: > 100 µM
[9]
  TGI: > 100 µM
[10]
  TGI: > 100 µM
[11]
  TGI: > 100 µM
[68]
  TGI: > 100 µM
[13]
  TGI: > 100 µM
[15]
  TGI: > 100 µM
[17]
  TGI: > 100 µM
[69]
  TGI: > 100 µM
[18]
  TGI: > 100 µM
[19]
  TGI: > 100 µM
[20]
  TGI: > 100 µM
[21]
  TGI: > 100 µM
[22]
  TGI: > 100 µM
[24]
  TGI: > 100 µM
[25]
  TGI: > 100 µM
[70]
  TGI: > 100 µM
[26]
  TGI: > 100 µM
[27]
  TGI: > 100 µM
[28]
  TGI: > 100 µM
[29]
  TGI: > 100 µM
[30]
  TGI: > 100 µM
[31]
  TGI: > 100 µM
[32]
  TGI: > 100 µM
[34]
  TGI: > 100 µM
[35]
  TGI: > 100 µM
[71]
  TGI: > 100 µM
[36]
  TGI: > 100 µM
[37]
  TGI: > 100 µM
[38]
  TGI: > 100 µM
[39]
  TGI: > 100 µM
[40]
  TGI: > 100 µM
[41]
  TGI: > 100 µM
[72]
  TGI: > 100 µM
[43]
  TGI: > 100 µM
[44]
  TGI: > 100 µM
[45]
  TGI: > 100 µM
[46]
  TGI: > 100 µM
[47]
  TGI: > 100 µM
[49]
  TGI: > 100 µM
[50]
  TGI: > 100 µM
[52]
  TGI: > 100 µM
[53]
  TGI: > 100 µM
[55]
  TGI: > 100 µM
[56]
  TGI: > 100 µM
[58]
  TGI: > 100 µM
[59]
  TGI: > 100 µM
[60]
  TGI: > 100 µM
[63]
  TGI: > 100 µM
[67]
  TGI: > 100 µM

## CC(C)C(=O)Nc1nc2nc[nH]c2c(=O)[nH]1
[1]
  TGI: > 100 µM
[2]
  TGI: > 100 µM
[3]
  TGI: > 100 µM
[5]
  TGI: > 100 µM
[6]
  TGI: > 100 µM
[7]
  TGI: > 100 µM
[8]
  TGI: > 100 µM
[9]
  TGI: > 100 µM
[10]
  TGI: > 100 µM
[11]
  TGI: > 100 µM
[68]
  TGI: > 100 µM
[12]
  TGI: > 100 µM
[13]
  TGI: > 100 µM
[15]
  TGI: > 100 µM
[17]
  TGI: > 100 µM
[69]
  TGI: > 100 µM
[18]
  TGI: > 100 µM
[19]
  TGI: > 100 µM
[20]
  TGI: > 100 µM
[21]
  TGI: > 100 µM
[22]
  TGI: > 100 µM
[23]
  TGI: > 100 µM
[24]
  TGI: > 100 µM
[25]
  TGI: > 100 µM
[70]
  TGI: > 100 µM
[26]
  TGI: > 100 µM
[27]
  TGI: > 100 µM
[28]
  TGI: > 100 µM
[29]
  TGI: > 100 µM
[30]
  TGI: > 100 µM
[31]
  TGI: > 100 µM
[32]
  TGI: > 100 µM
[34]
  TGI: > 100 µM
[35]
  TGI: > 100 µM
[71]
  TGI: > 100 µM
[36]
  TGI: > 100 µM
[37]
  TGI: > 100 µM
[38]
  TGI: > 100 µM
[39]
  TGI: > 100 µM
[40]
  TGI: > 100 µM
[41]
  TGI: > 100 µM
[72]
  TGI: > 100 µM
[43]
  TGI: > 100 µM
[44]
  TGI: > 100 µM
[45]
  TGI: > 100 µM
[46]
  TGI: > 100 µM
[47]
  TGI: > 100 µM
[49]
  TGI: > 100 µM
[50]
  TGI: > 100 µM
[52]
  TGI: > 100 µM
[53]
  TGI: > 100 µM
[55]
  TGI: > 100 µM
[56]
  TGI: > 100 µM
[58]
  TGI: > 100 µM
[59]
  TGI: > 100 µM
[60]
  TGI: > 100 µM
[61]
  TGI: > 100 µM
[63]
  TGI: > 100 µM
[67]
  TGI: > 100 µM
